Results as given in ChEMBL document CHEMBL1122146, “Conformation-activity study of methadone and related compounds” (J Med Chem, 1982).

Target: Mu-type opioid receptor (Cavia porcellus) (UniProt P97266)
Experiment: Evaluated for analgesic activity as effective dose
Assay type: functional

Sequence of Mu-type opioid receptor (Cavia porcellus) (P97266 whole entry): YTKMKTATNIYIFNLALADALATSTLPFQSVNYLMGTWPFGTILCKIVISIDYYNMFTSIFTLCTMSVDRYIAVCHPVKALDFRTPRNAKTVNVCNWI

Compound	ED50 [mg/kg]
CC[C@@H](O)C(C[C@@H](C)N(C)C)(c1ccccc1)c1ccccc1	24.7
CCC(=O)C(C[C@H](C)N(C)C)(c1ccccc1)c1ccccc1	25.7
CC[C@H](O)C(c1ccccc1)(c1ccccc1)[C@@H](C)CN(C)C	60.7
CCC(=O)C(c1ccccc1)(c1ccccc1)[C@@H](C)CN(C)C	49.8
CC[C@@H](O)C(c1ccccc1)(c1ccccc1)[C@@H](C)CN(C)C	58.7
CCC(O)C(C[C@H](C)NC)(c1ccccc1)c1ccccc1 (some centres not stated)	10.3
CCC(=O)C(CC(C)N(C)C)(c1ccccc1)c1ccccc1 (stereo in doubt; erythro)	0.4
CCC(=O)C(CCN(C)C)(c1ccccc1)c1ccccc1	2.5
CC[C@@H](O)C(c1ccccc1)(c1ccccc1)[C@H](C)CN(C)C	91.7
CCC(=O)C(C[C@@H](C)N(C)C)(c1ccccc1)c1ccccc1	0.8
CCC(=O)C(CC(C)N(C)C)(c1ccccc1)c1ccccc1 (stereo in doubt; threo)	> 50
CC[C@H](O)C(C[C@@H](C)N(C)C)(c1ccccc1)c1ccccc1	7.6
CCC(O)C(C[C@@H](C)NC)(c1ccccc1)c1ccccc1 (some centres not stated)	17.7
CC[C@H](O)C(c1ccccc1)(c1ccccc1)[C@H](C)CN(C)C	6.2
CCC(=O)C(c1ccccc1)(c1ccccc1)[C@H](C)CN(C)C	1.2
CC[C@@H](O)C(C[C@H](C)N(C)C)(c1ccccc1)c1ccccc1	63.7
CC[C@H](O)C(C[C@H](C)N(C)C)(c1ccccc1)c1ccccc1	3.5
